Data from patent publication US20100093722A1, “HETEROARYL AND PHENYL SUBSTITUTED THIENO[2,3-d]PYRIMIDINES AND THEIR USE AS ADENOSINE A2a RECEPTOR ANTAGONISTS” (priority 2008, published 2010).

Tests used:
[1] = molecular target: T1, human adenosine A2a receptor (Homo sapiens, UniProt P29274); experiment: Adenosine A2a Receptor Functional Assay (A2AGAL2); type: cell-based; settings: CHO-K1 cells overexpressing human A2a, cAMP inducible beta-galactosidase reporter, 15 nM NECA agonist challenge
T1 construct: expressed in transfected cells; host or cells: CHO-K1
T1 sequence (P29274 whole entry): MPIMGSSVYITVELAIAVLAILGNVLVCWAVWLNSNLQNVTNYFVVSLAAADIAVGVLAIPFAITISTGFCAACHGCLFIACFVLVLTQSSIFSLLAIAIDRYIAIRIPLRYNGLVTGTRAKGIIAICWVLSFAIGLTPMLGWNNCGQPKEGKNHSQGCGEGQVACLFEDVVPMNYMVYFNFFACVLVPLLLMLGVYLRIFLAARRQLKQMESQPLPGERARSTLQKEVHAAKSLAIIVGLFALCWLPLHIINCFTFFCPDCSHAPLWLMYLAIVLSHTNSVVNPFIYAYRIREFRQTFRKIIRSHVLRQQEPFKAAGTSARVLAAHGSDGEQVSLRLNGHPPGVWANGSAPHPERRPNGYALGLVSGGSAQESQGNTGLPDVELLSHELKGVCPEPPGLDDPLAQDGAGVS
Method: Adenosine A2a Receptor Functional Assay (A2AGAL2)
To initiate the functional assay, cryopreserved CHO-K1 cells overexpressing the human adenosine A2a receptor and containing a cAMP inducible beta-galactosidase reporter gene were thawed, centrifuged, DMSO containing media removed, and then seeded with fresh culture media into clear 384-well tissue culture treated plates (BD #353961) at a concentration of 10K cells/well. Prior to assay, these plates were cultured for two days at 37° C., 5% CO2, 90% Rh. On the day of the functional assay, culture media was removed and replaced with 45 uL assay medium (Hams/F-12 Modified (Mediatech #10-080CV) supplemented w/0.1% BSA). Test compounds were diluted and 11 point curves created at a 1000× concentration in 100% DMSO. Immediately after addition of assay media to the cell plates, 50 nL of the appropriate test compound antagonist or agonist control curves were added to cell plates using a Cartesian Hummingbird. Compound curves were allowed to incubate at room temperature on cell plates for approximately 15 minutes before addition of a 15 nM NECA (Sigma E2387) agonist challenge (5 uL volume). A control curve of NECA, a DMSO/Media control, and a single dose of Forskolin (Sigma F3917) were also included on each plate. After additions, cell plates were allowed to incubate at 37° C., 5% CO2, 90% Rh for 5.5-6 hours. After incubation, media was removed, and cell plates were washed 1× 50 uL with DPBS w/o Ca & Mg (Mediatech 21-031-CV). Into dry wells, 20 uL of 1× Reporter Lysis Buffer (Promega E3971 (diluted in dH2O from 5× stock)) was added to each well and plates frozen at −20° C. overnight. For β-galactosidase enzyme calorimetric assay, plates were thawed out at room temperature and 20 μL 2× assay buffer (Promega) was added to each well. Color was allowed to develop at 37° C., 5% CO2, 90% Rh for 1-1.5 h or until reasonable signal appeared. The calorimetric reaction was stopped with the addition of 60 μL/well 1M sodium carbonate. Plates were counted at 405 nm on a SpectraMax Microplate Reader (Molecular Devices). Data was analyzed in Microsoft Excel and IC/EC50 curves were fit using a standardized macro.

[2] = molecular target: T2, human adenosine A1 receptor (Homo sapiens, UniProt P30542); experiment: Adenosine A1 Receptor Functional Assay (A1GAL2); type: cell-based; settings: CHO-K1 cells overexpressing human A1, cAMP inducible beta-galactosidase reporter, 4 nM r-PIA/1 uM Forskolin challenge
T2 construct: expressed in transfected cells; host or cells: CHO-K1
T2 sequence (P30542 1-326): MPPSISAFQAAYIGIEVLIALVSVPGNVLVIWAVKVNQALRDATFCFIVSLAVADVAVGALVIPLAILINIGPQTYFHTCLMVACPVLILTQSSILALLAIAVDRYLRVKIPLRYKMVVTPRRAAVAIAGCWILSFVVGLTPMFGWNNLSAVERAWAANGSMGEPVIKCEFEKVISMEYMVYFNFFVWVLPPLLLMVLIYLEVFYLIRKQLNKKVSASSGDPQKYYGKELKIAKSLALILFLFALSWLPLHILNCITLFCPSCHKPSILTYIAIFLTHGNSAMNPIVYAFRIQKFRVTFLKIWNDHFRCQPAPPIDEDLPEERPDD
Method: Adenosine A1 Receptor Functional Assay (A1GAL2)
To initiate the functional assay, cryopreserved CHO-K1 cells overexpressing the human adenosine A1 receptor and containing a cAMP inducible beta-galactosidase reporter gene were thawed, centrifuged, DMSO containing media removed, and then seeded with fresh culture media into clear 384-well tissue culture treated plates (BD #353961) at a concentration of 10K cells/well. Prior to assay, these plates were cultured for two days at 37+ C., 5% CO2, 90% Rh. On the day of the functional assay, culture media was removed and replaced with 45 uL assay medium (Hams/F-12 Modified (Mediatech #10-080CV) supplemented w/0.1% BSA). Test compounds were diluted and 11 point curves created at a 1000× concentration in 100% DMSO. Immediately after addition of assay media to the cell plates, 50 nL of the appropriate test compound antagonist or agonist control curves were added to cell plates using a Cartesian Hummingbird. Compound curves were allowed to incubate at room temperature on cell plates for approximately 15 minutes before addition of a 4 nM r-PIA (Sigma P4532)/1 uM Forskolin (Sigma F3917) agonist challenge (5 uL volume). A control curve of r-PIA in 1 uM Forskolin, a DMSO/Media control, and a single dose of Forskolin were also included on each plate. After additions, cell plates were allowed to incubate at 37° C., 5% CO2, 90% Rh for 5.5-6 hours. After incubation, media was removed, and cell plates were washed 1× 50 uL with DPBS w/o Ca & Mg (Mediatech 21-031-CV). Into dry wells, 20 uL of 1× Reporter Lysis Buffer (Promega E3971 (diluted in dH2O from 5× stock)) was added to each well and plates frozen at −20° C. overnight. For β-galactosidase enzyme calorimetric assay, plates were thawed out at room temperature and 20 μL 2× assay buffer (Promega) was added to each well. Color was allowed to develop at 37° C., 5% CO2, 90% Rh for 1-1.5 h or until reasonable signal appeared. The calorimetric reaction was stopped with the addition of 60 μL/well 1M sodium carbonate. Plates were counted at 405 nm on a SpectraMax Microplate Reader (Molecular Devices). Data was analyzed in Microsoft Excel and IC/EC50 curves were fit using a standardized macro.

[3] = molecular target: T3, human A2a adenosine receptor (Homo sapiens, UniProt P29274); experiment: Ligand Binding Assay for Adenosine A2a Receptor (A2A-B); settings: plasma membrane of HEK293 cells containing human A2a receptor, radioligand [3H]CGS21680
T3 construct: purchased PerkinElmer RB-HA2a; host or cells: HEK293 plasma membrane
T3 sequence (P29274 whole entry): as the sequence (P29274 whole entry) above
Method: Ligand Binding Assay for Adenosine A2a Receptor
Ligand binding assay of adenosine A2a receptor was performed using plasma membrane of HEK293 cells containing human A2a adenosine receptor (PerkinElmer, RB-HA2a) and radioligand [^3H]CGS21680 (PerkinElmer, NET1021). Assay was set up in 96-well polypropylene plate in total volume of 200 μL by sequentially adding 20 μL 1:20 diluted membrane, 130 μL assay buffer (50 mM Tris.HCl, pH 7.4 10 mM MgCl2, 1 mM EDTA) containing [^3H] CGS21680, 50 μL diluted compound (4×) or vehicle control in assay buffer. Nonspecific binding was determined by […] NECA. Reaction was carried out at room temperature for 2 hours before filtering through 96-well GF/C filter plate pre-soaked in 50 mM Tris.HCl, pH 7.4 containing 0.3% polyethylenimine. Plates were then washed 5 times with cold 50 mM Tris.HCl, pH 7.4, dried and sealed at the bottom. Microscintillation fluid 30 μL was added to each well and the top sealed. Plates were counted on Packard Topcount for [^3H]. Data was analyzed in Microsoft Excel and GraphPad Prism programs. (Varani, K.; Gessi, S.; Dalpiaz, A.; Borea, P. A. British Journal of Pharmacology, 1996, 117, 1693)

Row | Ki [1] [nM] | Ki [2] [nM] | Ki [3] [nM] | SMILES
1 | 17.6 | 408 |  | N#Cc1cccc(-c2nc(N)c3cc(Cc4cccnc4)sc3n2)c1 [Example 32, 3-(4-Amino-6-pyridin-3-ylmethyl-thieno[2,3-d]pyrimidin-2-yl)-benzonitrile]
2 | 5.04 | 152 | 34.3 | N#Cc1cccc(-c2nc(N)c3cc(C(O)c4ccccn4)sc3n2)c1 (centres unmarked) [Example 15, 3-[4-Amino-6-(hydroxy-pyridin-2-yl-methyl)-thieno[2,3-d]pyrimidin-2-yl]-benzonitrile]
3 | 1040 | 1290 |  | N#Cc1cccc(-c2nc(N)c3cc(C(O)c4cccnc4N4CCCC4)sc3n2)c1 (centres unmarked) [Example 14, 3-{4-Amino-6-[hydroxy-(2-pyrrolidin-1-yl-pyridin-3-yl)-methyl]-thieno[2,3-d]pyrimidin-2-yl}-benzonitrile]
4 | 16 | 285 |  | N#Cc1cccc(-c2nc(N)c3cc(C(O)c4cccnc4)sc3n2)c1 (centres unmarked) [Example 31, 3-[4-Amino-6-(hydroxy-pyridin-3-yl-methyl)-thieno[2,3-d]pyrimidin-2-yl]-benzonitrile]
5 | 53 | 289 |  | COc1ncccc1C(=O)c1cc2c(N)nc(-c3cccc(C#N)c3)nc2s1 [Example 39, 3-[4-Amino-6-(2-methoxy-pyridine-3-carbonyl)-thieno[2,3-d]pyrimidin-2-yl]-benzonitrile]
6 | 64.3 | 507 |  | COc1ccc(Cc2cc3c(N)nc(-c4cccc(C#N)c4)nc3s2)cn1 [Example 37, 3-[4-Amino-6-(6-methoxy-pyridin-3-ylmethyl)-thieno[2,3-d]pyrimidin-2-yl]-benzonitrile]
7 | 5.71 | 48.7 |  | Nc1nc(-c2ccccc2)nc2sc(Cc3ccccn3)cc12 [Example 16, 2-Phenyl-6-pyridin-2-ylmethyl-thieno[2,3-d]pyrimidin-4-ylamine]
8 | 201 | 1280 |  | N#Cc1cccc(-c2nc(N)c3cc(C(O)c4ccc(N5CCCCC5)nc4)sc3n2)c1 (centres unmarked) [Example 12, 3-{4-Amino-6-[hydroxy-(3,4,5,6-tetrahydro-2H-[1,2′]bipyridinyl-5′-yl)-methyl]-thieno[2,3-d]pyrimidin-2-yl}-benzonitrile]
9 | 79.2 | 468 |  | N#Cc1cccc(-c2nc(N)c3cc(CCc4ccccn4)sc3n2)c1 [Example 2, 3-[4-Amino-6-(2-pyridin-2-yl-ethyl)-thieno[2,3-d]pyrimidin-2-yl]-benzonitrile]
10 | 47.2 | 438 |  | Nc1nc(-c2ccccc2)nc2sc(Cc3ccc(Cl)nc3)cc12 [Example 3, 6-(6-Chloro-pyridin-3-ylmethyl)-2-phenyl-thieno[2,3-d]pyrimidin-4-ylamine]
11 | 32 | 277 |  | N#Cc1cccc(-c2nc(N)c3cc(C(O)c4cccnc4N4CCCCC4)sc3n2)c1 (centres unmarked) [Example 17, 3-{4-Amino-6-[hydroxy-(3,4,5,6-tetrahydro-2H-[1,2′]bipyridinyl-3′-yl)-methyl]-thieno[2,3-d]pyrimidin-2-yl}-benzonitrile]
12 | 442 | 443 |  | Nc1nc(-c2cccc(F)c2)nc2sc(Cc3ccc(Cl)nc3)cc12 [Example 40, 6-(6-Chloro-pyridin-3-ylmethyl)-2-(3-fluoro-phenyl)-thieno[2,3-d]pyrimidin-4-ylamine]
13 | 156 | 726 |  | COc1ccc(C(O)c2cc3c(N)nc(-c4cccc(C#N)c4)nc3s2)cn1 (centres unmarked) [Example 36, 3-{4-Amino-6-[hydroxy-(6-methoxy-pyridin-3-yl)-methyl]-thieno[2,3-d]pyrimidin-2-yl}-benzonitrile]
14 | 25.3 | > 610 |  | N#Cc1cccc(-c2nc(N)c3cc(Cc4ccncc4Cl)sc3n2)c1 [Example 22, 3-[4-Amino-6-(3-chloro-pyridin-4-ylmethyl)-thieno[2,3-d]pyrimidin-2-yl]-benzonitrile]
15 | 39.8 | 592 |  | N#Cc1cccc(-c2nc(N)c3cc(Cc4cccnc4N4CCOCC4)sc3n2)c1 [Example 27, 3-[4-Amino-6-(2-morpholin-4-yl-pyridin-3-ylmethyl)-thieno[2,3-d]pyrimidin-2-yl]-benzonitrile]
16 | 171 | 445 |  | N#Cc1cccc(-c2nc(N)c3cc(C(O)c4cccnc4N4CCOCC4)sc3n2)c1 (centres unmarked) [Example 13, 3-{4-Amino-6-[hydroxy-(2-morpholin-4-yl-pyridin-3-yl)-methyl]-thieno[2,3-d]pyrimidin-2-yl}-benzonitrile]
17 | 5.09 | 145 |  | N#Cc1cccc(-c2nc(N)c3cc(C(O)c4cccnc4F)sc3n2)c1 (centres unmarked) [Example 29, 3-{4-Amino-6-[(2-fluoro-pyridin-3-yl)-hydroxy-methyl]-thieno[2,3-d]pyrimidin-2-yl}-benzonitrile]
18 | 87.5 | 787 |  | N#Cc1cccc(-c2nc(N)c3cc(C(O)c4ccncc4)sc3n2)c1 (centres unmarked) [Example 28, 3-[4-Amino-6-(hydroxy-pyridin-4-yl-methyl)-thieno[2,3-d]pyrimidin-2-yl]-benzonitrile]
19 | 45.3 | 292 |  | N#Cc1cccc(-c2nc(N)c3cc(Cc4cccnc4N4CCCCC4)sc3n2)c1 [Example 20, 3-[4-Amino-6-(3,4,5,6-tetrahydro-2H-[1,2′]bipyridinyl-3′-ylmethyl)-thieno[2,3-d]pyrimidin-2-yl]-benzonitrile]
20 | 29.3 | 153 |  | COc1cccc(C(O)c2cc3c(N)nc(-c4cccc(C#N)c4)nc3s2)n1 (centres unmarked) [Example 11, 3-{4-Amino-6-[hydroxy-(6-methoxy-pyridin-2-yl)-methyl]-thieno[2,3-d]pyrimidin-2-yl}-benzonitrile]
